Experimental data published in patent US20240174618A1, “SUBSTITUTED (2-HETEROARYLOXYPHENYL)SULFONATES, SALTS THEREOF AND THEIR USE AS HERBICIDAL AGENTS” (Bayer Aktiengesellschaft, priority 2021, published 2024).

Assays:
Type in all cases: in vivo
[1] = tested on: Alopecurus myosuroides (ALOMY); assay: B. Herbicidal post-emergence efficacy, ALOMY; conditions: rated visually after about 3 weeks
Method: (§1) Seeds of mono- and dicotyledonous weed plants were placed in plastic pots in sandy loam soil (doubly sown with in each case one species of mono- or dicotyledonous weed plants per pot), covered with soil and cultivated in a greenhouse under controlled growth conditions. 2 to 3 weeks after sowing, the test plants were treated at the one-leaf stage. The compounds of the invention, formulated in the form of wettable powders (WP) or as emulsion concentrates (EC), were applied onto the green parts of the plants as aqueous suspension or emulsion with addition of 0.5% additive at a water application rate of 600 liters per hectare (converted). After the test plants had been kept in the greenhouse under optimum growth conditions for about 3 weeks, the activity of the preparations was rated visually in comparison to untreated controls.
(§2) For example, • 100% efficacy=plants have died, • 0% efficacy=like untreated control plants
(§3) Tables B1a to B12c below show the effects of selected inventive compounds of the general formula (I) according to table 1 on various harmful plants at an application rate corresponding to 1280 g/ha or less, which were obtained by the experimental procedure mentioned above.

[2] = tested on: Alopecurus myosuroides (ALOMY); assay: E. Herbicidal post-emergence efficacy, ALOMY
Method: (§4) Seeds of monocotyledonous and dicotyledonous weeds and crop plants were placed in sandy loam in plastic or organic planting pots, covered with soil and cultivated in a greenhouse under controlled growth conditions. 2 to 3 weeks after sowing, the test plants were treated at the one-leaf stage. The compounds of the invention, formulated in the form of wettable powders (WP) or as emulsion concentrates (EC), were then sprayed onto the green parts of the plants as aqueous suspension or emulsion with addition of 0.5% additive at a water application rate of 600 l/ha (converted). After the test plants had been kept in the greenhouse under optimum growth conditions for about 3 weeks, the activity of the preparations was rated visually in comparison to untreated controls.
(§5) For example, • 100% efficacy=plants have died, • 0% action=like untreated control plants.
(§6) Tables E1a to E12b below show the effects of selected compounds of the general formula (I) according to table 1 on various harmful plants at an application rate corresponding to 320 g/ha or less, which were obtained by the experimental procedure mentioned above.

[3] = tested on: Lolium rigidum (LOLRI); assay: B. Herbicidal post-emergence efficacy, LOLRI
Method: as §1, §2, §3

[4] = tested on: Pharbitis purpurea (PHBPU); assay: C. Herbicidal pre-emergence efficacy, PHBPU; conditions: scored after about 3 weeks
Description: Seeds of monocotyledonous and dicotyledonous weed plants and crop plants were placed in plastic or organic planting pots and covered with soil. The compounds of the invention, formulated in the form of wettable powders (WP) or as emulsion concentrates (EC), were then applied to the surface of the covering soil as aqueous suspension or emulsion with addition of 0.5% additive at a water application rate equivalent to 600 l/ha (converted). After the treatment, the pots were placed in a greenhouse and kept under good growth conditions for the test plants. After about 3 weeks, the efficacy of the preparations was scored visually in comparison with untreated controls as percentages. For example, • 100% efficacy=plants have died, • 0% efficacy=like untreated control plants.
Tables C1a to C14b below show the effects of selected compounds of the general formula (I) according to table 1 on various harmful plants at an application rate corresponding to 320 g/ha or less, which were obtained by the experimental procedure mentioned above.

[5] = tested on: Matricaria inodora (MATIN); assay: C. Herbicidal pre-emergence efficacy, MATIN; conditions: scored after about 3 weeks
Summary of the method: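 Pre-emergence test: formulated compounds sprayed as aqueous suspension or emulsion with 0.5% additive at 600 l/ha onto soil covering sown seeds, at rates corresponding to 320 g/ha or less. After about 3 weeks in greenhouse, efficacy scored visually as percent versus untreated controls (100% = plants dead).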

[6] = tested on: Stellaria media (STEME); assay: B. Herbicidal post-emergence efficacy, STEME
Summary of the method: (§7)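 Weeds grown in sandy loam in greenhouse pots, sprayed at one-leaf stage (2–3 weeks after sowing) with WP or EC formulations as aqueous suspension/emulsion plus 0.5% additive at 600 L/ha water, rates up to 1280 g/ha. Visual efficacy rated about 3 weeks later versus untreated controls (0% = like control, 100% = dead).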

[7] = tested on: Zea mays (ZEAMX); assay: D. Pre-emergence effect on useful plants, ZEAMX; conditions: useful plant
Summary of the method: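 Seeds sown in pots and covered with soil; WP or EC formulations sprayed on the soil surface as aqueous suspension/emulsion with 0.5% additive at 600 l/ha water. Plants grown in greenhouse; crop damage scored visually after about 3 weeks as % versus untreated controls (100% = dead, 0% = like control).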

[8] = tested on: Digitaria sanguinalis (DIGSA); assay: E. Herbicidal post-emergence efficacy, DIGSA
Method: as §4, §5, §6

[9] = tested on: Digitaria sanguinalis (DIGSA); assay: B. Herbicidal post-emergence efficacy, DIGSA; conditions: rated visually after about 3 weeks
Summary of the method: as §7

Row | Pre-emergence efficacy against ZEAMX in % ([7]; application rate 80 g/ha) | Pre-emergence efficacy against ZEAMX in % ([7]; application rate 320 g/ha) | Compound | Post-emergence efficacy against ALOMY in % ([1]; 320 g/ha) | Post-emergence efficacy against ALOMY in % ([1]; 1280 g/ha) | Post-emergence efficacy against ALOMY in % ([2]; application rate 320 g/ha) | Post-emergence efficacy against LOLRI ([3]; 1280 g/ha) | Pre-emergence efficacy against PHBPU ([4]; 320 g/ha) | Pre-emergence efficacy against MATIN ([5]; 320 g/ha) | Post-emergence efficacy against STEME ([6]; 80 g/ha) | Post-emergence efficacy against STEME ([6]; 320 g/ha) | Post-emergence efficacy against STEME ([6]; 1280 g/ha) | Post-emergence efficacy against ALOMY in % ([2]; application rate 80 g/ha) | Post-emergence efficacy against DIGSA in % ([8]; application rate 80 g/ha) | Post-emergence efficacy against DIGSA in % ([8]; application rate 320 g/ha) | Pre-emergence efficacy against MATIN ([5]; 80 g/ha) | Post-emergence efficacy against LOLRI ([3]; 320 g/ha) | Pre-emergence efficacy against PHBPU ([4]; 80 g/ha) | Post-emergence efficacy against DIGSA in % ([9]; 320 g/ha) | Post-emergence efficacy against DIGSA in % ([9]; 1280 g/ha)
1 |  |  | O=S(=O)(CCCCl)Oc1ccccc1Oc1ncc(Cl)cn1 [Example I-2] | 90% | 90% | 90% | 90% | 90% | 100% | 90% | 100% | 100% |  |  |  |  |  |  |  | 
2 | 20% |  | O=S(=O)(CCCCl)Oc1ccccc1Oc1ncc(F)cn1 [Example I-5] |  | 100% | 90% |  | 80% | 90% | 100% | 100% | 100% | 80% |  |  |  |  |  |  | 
3 |  |  | O=S(=O)(CCC(F)(F)F)Oc1ccccc1Oc1ncc(Cl)cn1 [Example I-8] |  |  | 90% | 90% | 80% | 80% |  | 90% | 90% |  | 80% | 90% | 80% |  |  |  | 
4 |  |  | O=S(=O)(CCCC(F)(F)F)Oc1ccccc1Oc1ncc(Cl)cn1 [Example I-10] |  |  | 100% | 100% | 100% | 100% | 90% | 90% | 100% | 90% | 90% | 90% | 90% | 90% | 100% |  | 
5 | 20% |  | Cc1cccc(OS(=O)(=O)CCCCl)c1Oc1ncc(Cl)cn1 [Example I-12] |  |  |  | 90% |  |  | 90% | 90% | 100% |  |  |  |  | 90% |  |  | 
6 |  |  | O=S(=O)(CCCCl)Oc1c(F)cccc1Oc1ncc(Cl)cn1 [Example I-14] | 100% | 100% | 90% | 100% |  |  | 100% | 100% | 100% |  |  |  |  |  |  | 100% | 100%
7 |  |  | O=S(=O)(CCCCCl)Oc1ccccc1Oc1ncc(Cl)cn1 [Example I-15] |  |  |  | 90% | 90% |  | 100% | 100% | 100% |  | 80% | 90% |  | 90% |  |  | 
8 | 0% |  | O=S(=O)(CC1CC1)Oc1ccccc1Oc1ncc(Cl)cn1 [Example I-23] | 90% | 90% | 80% |  | 80% | 100% | 90% | 100% | 100% |  |  | 100% |  |  |  | 90% | 100%
9 | 0% | 0% | CCCCCS(=O)(=O)Oc1ccccc1Oc1ncc(Cl)cn1 [Example I-24] |  |  |  | 90% |  |  | 90% | 90% | 100% |  |  |  |  |  |  | 90% | 90%
10 | 0% |  | CC(C)CCS(=O)(=O)Oc1ccccc1Oc1ncc(Cl)cn1 [Example I-25] |  |  |  | 90% |  |  | 90% | 100% | 100% |  |  |  |  |  |  | 90% | 100%
11 |  |  | Cc1cccc(Oc2ncc(Cl)cn2)c1OS(=O)(=O)CCC(F)(F)F [Example I-29] |  |  |  | 90% |  |  | 90% | 100% | 100% |  |  |  |  |  |  |  | 100%
12 |  |  | O=S(=O)(CCC(F)(F)F)Oc1c(Cl)cccc1Oc1ncc(Br)cn1 [Example I-32] |  | 90% |  | 90% |  | 80% | 100% | 100% | 100% |  |  | 90% |  |  |  | 90% | 100%
13 |  |  | O=S(=O)(CCC(F)(F)F)Oc1c(Cl)cccc1Oc1ncc(Cl)cn1 [Example I-38] |  |  | 80% | 90% |  | 80% | 90% | 90% | 90% |  |  | 90% | 80% |  |  |  | 90%
14 |  |  | O=S(=O)(CCCC(F)(F)F)Oc1c(F)cccc1Oc1ncc(Br)cn1 [Example I-41] |  | 90% | 100% | 90% | 100% |  | 90% | 90% | 90% |  | 100% | 100% |  |  | 80% | 90% | 90%
15 |  |  | O=S(=O)(CCCC(F)(F)F)Oc1c(F)cccc1Oc1ncc(Cl)cn1 [Example I-49] |  | 90% | 80% | 90% | 100% | 100% | 90% | 90% | 90% |  | 90% | 100% | 80% |  | 90% | 90% | 90%
16 | 0% |  | COCCS(=O)(=O)Oc1c(F)cccc1Oc1ncc(Cl)cn1 [Example I-52] |  |  |  | 90% |  |  |  |  | 90% |  |  |  |  |  |  |  | 90%
17 |  |  | O=S(=O)(CCC(F)=C(F)F)Oc1c(Cl)cccc1Oc1ncc(Cl)cn1 [Example I-73] |  | 90% |  | 90% |  |  | 90% | 100% | 100% |  |  |  |  |  |  | 90% | 100%
18 | 0% |  | Cc1cccc(Oc2ncc(Cl)cn2)c1OS(=O)(=O)CC1CC(F)(F)C1 [Example I-74] |  | 90% |  | 100% |  |  | 100% | 100% | 100% |  |  |  |  |  |  | 90% | 100%
